The results in this text go back to ChEMBL document CHEMBL5465560, “Selectivity Literature for EUbOPEN Chemogenomic Library” (2024).

SMILES strings stand for the structures.

The target of assay [1] is T1, Inhibitor of nuclear factor kappa-B kinase subunit alpha (Homo sapiens) (UniProt O15111).
T1 sequence (whole entry): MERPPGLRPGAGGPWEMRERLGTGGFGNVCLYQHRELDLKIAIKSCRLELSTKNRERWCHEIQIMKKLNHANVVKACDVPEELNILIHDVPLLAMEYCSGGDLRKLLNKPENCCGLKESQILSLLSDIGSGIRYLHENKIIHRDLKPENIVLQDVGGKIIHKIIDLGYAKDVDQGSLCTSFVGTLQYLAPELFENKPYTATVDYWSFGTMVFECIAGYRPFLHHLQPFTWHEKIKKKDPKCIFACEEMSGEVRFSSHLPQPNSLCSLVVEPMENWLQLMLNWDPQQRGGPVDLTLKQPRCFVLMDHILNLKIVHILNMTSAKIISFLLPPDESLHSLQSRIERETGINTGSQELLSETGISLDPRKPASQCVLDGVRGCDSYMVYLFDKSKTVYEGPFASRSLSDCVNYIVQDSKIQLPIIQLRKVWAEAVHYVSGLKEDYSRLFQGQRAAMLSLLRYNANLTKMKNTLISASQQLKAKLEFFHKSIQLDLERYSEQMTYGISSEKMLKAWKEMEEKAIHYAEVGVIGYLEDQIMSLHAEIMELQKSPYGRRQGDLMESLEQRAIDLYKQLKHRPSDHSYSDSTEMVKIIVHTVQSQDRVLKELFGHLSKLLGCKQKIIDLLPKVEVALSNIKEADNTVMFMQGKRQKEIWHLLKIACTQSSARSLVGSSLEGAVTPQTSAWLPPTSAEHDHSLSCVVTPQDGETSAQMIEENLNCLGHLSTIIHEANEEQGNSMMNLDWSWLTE
Description: Selectivity interaction (Adapta Assay) EUB0001632a CHUK. The note with it: at 10 µM.

The target in assay [2] is Serine/threonine-protein kinase 38-like (Homo sapiens) (UniProt Q9Y2H1). As to the kind of experiment: Selectivity interaction (Kinase panel (DSF assay)) EUB0001559a STK38L.
Serine/threonine-protein kinase 38-like (Homo sapiens), sequence (Q9Y2H1 2-464 limits assumed): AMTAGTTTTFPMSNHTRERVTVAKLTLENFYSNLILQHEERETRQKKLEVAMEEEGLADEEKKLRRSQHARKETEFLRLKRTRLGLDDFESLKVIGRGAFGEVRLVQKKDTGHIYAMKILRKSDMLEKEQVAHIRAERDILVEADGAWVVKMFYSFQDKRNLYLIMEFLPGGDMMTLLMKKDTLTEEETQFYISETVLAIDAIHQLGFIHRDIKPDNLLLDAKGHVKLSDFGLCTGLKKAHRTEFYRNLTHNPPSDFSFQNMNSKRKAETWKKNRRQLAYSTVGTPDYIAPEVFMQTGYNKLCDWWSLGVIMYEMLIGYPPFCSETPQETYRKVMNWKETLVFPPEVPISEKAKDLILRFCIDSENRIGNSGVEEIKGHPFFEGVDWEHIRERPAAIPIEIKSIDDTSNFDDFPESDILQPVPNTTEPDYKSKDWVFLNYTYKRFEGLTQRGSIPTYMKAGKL
Assay [3] has as its target Macrophage colony-stimulating factor 1 receptor (Homo sapiens) (UniProt P07333). Description: Selectivity interaction (Ambit KINOMEscan and KiNATiv profiling in Jurkat cells) EUB0000090b CSF1R. The settings on record: at 1 µM. The assay is classed as cell-based.
In assay [4] the target is Dual specificity mitogen-activated protein kinase kinase 1 (Homo sapiens, UniProt Q02750). As to the kind of experiment: Selectivity interaction (KinomeScan (DiscoverX)) EUB0000092b MAP2K1. The settings on record: at 10 µM.
Dual specificity mitogen-activated protein kinase kinase 1, sequence (Q02750 whole entry): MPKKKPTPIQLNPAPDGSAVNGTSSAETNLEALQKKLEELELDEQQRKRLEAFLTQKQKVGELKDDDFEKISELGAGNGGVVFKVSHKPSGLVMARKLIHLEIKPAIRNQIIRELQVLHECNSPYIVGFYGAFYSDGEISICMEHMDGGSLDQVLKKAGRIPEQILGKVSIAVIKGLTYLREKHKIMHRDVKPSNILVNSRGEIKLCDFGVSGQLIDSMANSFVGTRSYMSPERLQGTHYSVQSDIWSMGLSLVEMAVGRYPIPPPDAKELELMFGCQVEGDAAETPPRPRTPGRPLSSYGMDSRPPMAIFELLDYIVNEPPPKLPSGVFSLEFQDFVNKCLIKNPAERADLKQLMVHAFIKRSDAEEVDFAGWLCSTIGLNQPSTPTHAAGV
In assay [5] the target is Serine/threonine-protein kinase MRCK gamma (Homo sapiens) (UniProt Q6DT37). As to the kind of experiment: Selectivity interaction (KinomeScan (DiscoverX)) EUB0000092b CDC42BPG. The note with it: at 10 µM.
Serine/threonine-protein kinase MRCK gamma (Homo sapiens), sequence (Q6DT37 whole entry): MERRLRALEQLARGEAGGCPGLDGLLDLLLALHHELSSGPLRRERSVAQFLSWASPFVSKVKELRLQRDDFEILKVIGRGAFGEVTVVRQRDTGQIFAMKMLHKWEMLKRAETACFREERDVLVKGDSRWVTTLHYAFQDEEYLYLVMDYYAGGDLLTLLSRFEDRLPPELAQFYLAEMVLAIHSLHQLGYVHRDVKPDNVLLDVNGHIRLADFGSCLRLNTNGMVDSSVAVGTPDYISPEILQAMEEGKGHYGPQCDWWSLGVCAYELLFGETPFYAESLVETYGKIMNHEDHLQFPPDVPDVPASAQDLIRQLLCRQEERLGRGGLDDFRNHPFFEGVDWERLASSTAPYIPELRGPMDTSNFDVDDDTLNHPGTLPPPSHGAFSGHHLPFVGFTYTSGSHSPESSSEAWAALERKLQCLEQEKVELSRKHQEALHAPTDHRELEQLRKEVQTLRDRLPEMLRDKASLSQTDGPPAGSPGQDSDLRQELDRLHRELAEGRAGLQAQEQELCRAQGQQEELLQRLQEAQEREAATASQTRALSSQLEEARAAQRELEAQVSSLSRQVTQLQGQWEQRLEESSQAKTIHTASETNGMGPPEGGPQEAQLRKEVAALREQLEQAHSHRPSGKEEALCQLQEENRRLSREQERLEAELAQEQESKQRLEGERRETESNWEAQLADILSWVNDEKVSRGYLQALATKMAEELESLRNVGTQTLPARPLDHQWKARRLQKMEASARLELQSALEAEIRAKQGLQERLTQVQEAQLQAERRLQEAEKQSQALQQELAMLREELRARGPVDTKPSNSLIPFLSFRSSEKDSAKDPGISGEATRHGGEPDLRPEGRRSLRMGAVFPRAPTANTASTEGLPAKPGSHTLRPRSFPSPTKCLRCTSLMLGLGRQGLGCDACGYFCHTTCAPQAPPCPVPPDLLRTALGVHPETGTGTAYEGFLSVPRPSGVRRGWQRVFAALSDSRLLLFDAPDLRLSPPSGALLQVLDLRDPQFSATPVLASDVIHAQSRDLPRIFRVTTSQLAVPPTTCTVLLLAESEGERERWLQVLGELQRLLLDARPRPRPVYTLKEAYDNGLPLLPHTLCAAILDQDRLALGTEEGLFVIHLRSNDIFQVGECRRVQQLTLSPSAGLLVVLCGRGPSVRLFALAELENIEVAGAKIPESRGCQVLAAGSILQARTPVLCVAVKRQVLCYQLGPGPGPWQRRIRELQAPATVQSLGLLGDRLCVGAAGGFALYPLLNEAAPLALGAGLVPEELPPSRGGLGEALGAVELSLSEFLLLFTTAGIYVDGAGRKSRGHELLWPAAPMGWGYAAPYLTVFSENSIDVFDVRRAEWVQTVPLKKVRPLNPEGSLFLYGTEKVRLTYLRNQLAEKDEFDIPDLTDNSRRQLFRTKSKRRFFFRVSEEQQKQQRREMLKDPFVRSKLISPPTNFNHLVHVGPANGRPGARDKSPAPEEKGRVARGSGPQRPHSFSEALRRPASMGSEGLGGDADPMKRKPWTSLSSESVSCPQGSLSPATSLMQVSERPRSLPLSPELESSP
Assay [6] addresses T2, Mitogen-activated protein kinase 12 (Homo sapiens) (UniProt P53778).
T2 sequence (whole entry): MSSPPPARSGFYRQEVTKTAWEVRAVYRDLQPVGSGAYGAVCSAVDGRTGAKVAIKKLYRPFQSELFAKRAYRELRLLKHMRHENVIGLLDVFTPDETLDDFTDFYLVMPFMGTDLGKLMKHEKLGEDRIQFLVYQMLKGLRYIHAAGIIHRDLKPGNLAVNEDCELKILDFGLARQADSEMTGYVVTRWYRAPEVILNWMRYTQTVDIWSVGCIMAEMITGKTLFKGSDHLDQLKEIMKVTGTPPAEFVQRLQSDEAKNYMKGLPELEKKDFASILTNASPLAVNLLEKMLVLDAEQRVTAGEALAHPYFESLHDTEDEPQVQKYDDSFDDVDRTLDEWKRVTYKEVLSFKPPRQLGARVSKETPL
As to the kind of experiment: Selectivity interaction (KinomeScan (DiscoverX)) EUB0001079a MAPK12. The settings on record: at 1 µM.

The target of assay [7] is T3, Uncharacterized serine/threonine-protein kinase SBK3 (Homo sapiens) (UniProt P0C264).
T3 sequence (whole entry): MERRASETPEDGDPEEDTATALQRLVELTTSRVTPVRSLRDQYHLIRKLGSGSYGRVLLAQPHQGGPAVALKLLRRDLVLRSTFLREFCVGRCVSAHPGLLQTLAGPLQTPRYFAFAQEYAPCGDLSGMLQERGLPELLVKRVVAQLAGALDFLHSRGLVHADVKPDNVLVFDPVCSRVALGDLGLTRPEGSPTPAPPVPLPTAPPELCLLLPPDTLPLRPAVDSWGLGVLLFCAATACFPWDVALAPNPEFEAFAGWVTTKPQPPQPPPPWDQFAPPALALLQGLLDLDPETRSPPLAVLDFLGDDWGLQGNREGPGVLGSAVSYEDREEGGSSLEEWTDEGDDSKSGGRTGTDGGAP
Description: Selectivity interaction (KinomeScan (DiscoverX)) EUB0000229b SBK3. The settings on record: at 10 µM.

Assay [8] deals with T4, Muscle, skeletal receptor tyrosine-protein kinase (Homo sapiens) (UniProt O15146).
T4 sequence (whole entry): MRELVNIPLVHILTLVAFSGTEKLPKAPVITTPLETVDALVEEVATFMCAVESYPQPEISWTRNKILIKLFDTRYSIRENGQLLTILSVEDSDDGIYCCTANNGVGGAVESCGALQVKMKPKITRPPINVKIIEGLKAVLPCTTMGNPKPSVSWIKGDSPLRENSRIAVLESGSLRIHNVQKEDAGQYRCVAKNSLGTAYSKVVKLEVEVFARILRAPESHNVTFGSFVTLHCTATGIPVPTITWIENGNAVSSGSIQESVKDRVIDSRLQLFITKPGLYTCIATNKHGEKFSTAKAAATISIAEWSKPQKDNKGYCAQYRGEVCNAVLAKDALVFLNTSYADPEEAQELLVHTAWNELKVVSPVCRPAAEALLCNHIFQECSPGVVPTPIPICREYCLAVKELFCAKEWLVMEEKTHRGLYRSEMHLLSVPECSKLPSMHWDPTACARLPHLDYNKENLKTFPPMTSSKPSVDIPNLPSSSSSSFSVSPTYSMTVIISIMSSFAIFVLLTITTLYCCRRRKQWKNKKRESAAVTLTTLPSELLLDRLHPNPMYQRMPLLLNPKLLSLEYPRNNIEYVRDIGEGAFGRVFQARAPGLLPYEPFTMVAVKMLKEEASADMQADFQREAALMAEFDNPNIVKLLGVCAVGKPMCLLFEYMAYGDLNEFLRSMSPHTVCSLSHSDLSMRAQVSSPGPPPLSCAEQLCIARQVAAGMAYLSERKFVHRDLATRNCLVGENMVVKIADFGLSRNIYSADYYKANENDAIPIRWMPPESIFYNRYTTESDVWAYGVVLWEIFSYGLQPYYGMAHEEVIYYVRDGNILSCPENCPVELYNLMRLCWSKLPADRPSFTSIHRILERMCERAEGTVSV
Description: Selectivity interaction (KinomeScan (DiscoverX)) EUB0000229b MUSK. The note with it: at 10 µM.

Macrophage colony-stimulating factor 1 receptor (Homo sapiens), sequence (P07333 whole entry): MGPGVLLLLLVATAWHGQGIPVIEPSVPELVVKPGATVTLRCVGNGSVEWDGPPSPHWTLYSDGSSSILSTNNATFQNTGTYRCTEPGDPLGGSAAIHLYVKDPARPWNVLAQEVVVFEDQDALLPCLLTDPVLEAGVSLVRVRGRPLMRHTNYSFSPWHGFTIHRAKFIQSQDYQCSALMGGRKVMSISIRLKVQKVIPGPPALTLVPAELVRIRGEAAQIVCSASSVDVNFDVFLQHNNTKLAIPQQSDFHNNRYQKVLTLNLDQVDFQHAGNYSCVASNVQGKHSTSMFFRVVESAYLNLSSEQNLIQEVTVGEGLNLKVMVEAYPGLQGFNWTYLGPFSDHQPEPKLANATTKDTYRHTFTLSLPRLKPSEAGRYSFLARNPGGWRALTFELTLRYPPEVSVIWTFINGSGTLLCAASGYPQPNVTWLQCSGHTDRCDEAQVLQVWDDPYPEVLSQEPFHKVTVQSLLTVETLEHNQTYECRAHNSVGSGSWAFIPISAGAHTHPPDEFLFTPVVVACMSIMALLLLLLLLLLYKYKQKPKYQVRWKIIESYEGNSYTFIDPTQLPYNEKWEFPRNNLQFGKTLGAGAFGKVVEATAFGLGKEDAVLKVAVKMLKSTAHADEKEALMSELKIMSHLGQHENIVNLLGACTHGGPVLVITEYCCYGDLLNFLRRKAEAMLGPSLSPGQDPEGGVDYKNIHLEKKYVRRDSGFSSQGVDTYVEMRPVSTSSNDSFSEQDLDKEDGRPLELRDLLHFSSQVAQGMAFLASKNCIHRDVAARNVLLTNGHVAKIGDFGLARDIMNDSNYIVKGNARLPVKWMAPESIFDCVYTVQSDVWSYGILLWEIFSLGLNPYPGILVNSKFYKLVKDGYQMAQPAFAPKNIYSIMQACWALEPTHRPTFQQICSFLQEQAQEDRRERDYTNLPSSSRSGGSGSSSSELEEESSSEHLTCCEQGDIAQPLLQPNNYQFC

`Cn1cc(-n2cnc3c(NCc4nc5cc(Cl)c(Cl)cc5[nH]4)nc(N4CCOCC4)nc32)cn1`: the % of inhibition in assay [1] turned out to be 13.7%.
As for `CN(C(=O)c1cnn2cccnc12)c1cc2c(cc1N1CCOCC1)C(=O)N(C[C@@H](F)C(C)(C)O)C2`, the dTM in assay [2] was 0 K.
On to `CN(C)C/C=C/C(=O)Nc1ccc(C(=O)N2CCCC(Nc3ncc(Cl)c(-c4c[nH]c5ccccc45)n3)C2)cc1` (stereo not drawn), for which the % of control in assay [3] amounted to 90%.
For `CCC(=O)N1CCN(c2ccc(-n3c(=O)ccc4cnc5ccc(-c6cnc7ccccc7c6)cc5c43)cc2C(F)(F)F)CC1`, the results for the % of control in assay [4] and in assay [5] were 100% and 1.6%, respectively.
On to `Nc1cnc(N2CCc3cc(S(=O)(=O)Nc4c(F)cc(Cl)cc4F)cc(N4CCCC4=O)c32)nc1` [TP-020n], for which, in assay [6], the % of control is 100%.
For the molecule `COc1cc(N(C)c2ccnc3ccc(C(F)(F)F)cc23)cc(OC)c1OC`, the % binding in assay [7] was determined as 100%; in assay [8] it was 81%.
